According to patent US8148328B2, “Salicylanilides enhance oral delivery of therapeutic peptides” (The Regents of the University of California, priority 2006, dated 2012):
Where a name gives a salt, the structure may show the parent alone. Read-outs that look alike come from different tables or passages of the source. Values belong to the molecule of their own block, whether it stands above or below them. Residues, ends and D or L forms follow the SMILES beside them. No end group written: not given here.

How the values were obtained:
[1] = mouse, in vivo
[2] = mouse, in vivo, 100 ug
[3] = system: LDL-induced monocyte chemotactic activity in cultures of human aortic endothelial cells; test: HDL-inflammatory index of HDL from treated apoE null mice; format: in vivo; settings: for HDL-inflammatory index, potency relative to niclosamide: FIG. 24: salicylanilide 10:1 with 5 μg D-4F or L-4F by stomach tube, 6 hours
Text: 11-month-old female apoE null mice were fasted during the day. At night the mice were provided chow containing or not containing additions. In the first experiment the mice were given chow alone (C) or chow supplemented with 8.0 micrograms of Niclosamide (2′,5-Dichloro-4′-nitrosalicylanilide; Niclosamide, Sigma catalog number N-3510 Page 1711 2006-2007 catalog Empirical Formula (Hill Notation): C13H8C12N2O4 Formula Weight: 327.12, CAS Number: 50-65-7 Batch 105K0666 EC 200-056-8) per gram of chow (D) or chow supplemented with 2.0 micrograms of L-4F (free base) per gram of chow (E), or chow supplemented with 8.0 micrograms of Niclosamide together with 2.0 micrograms of L-4F (free base) per gram of chow (F). The mice were only given one gram of chow per mouse (n=8 mice per group) so that they would consume all of the chow. In the morning after the chow was consumed the mice were bled and their plasma was sucrose cryopreserved and fractionated by FPLC and the HDL-containing fractions were tested for their ability to inhibit monocyte chemotactic activity induced by a standard control human LDL (A) in cultures of human aortic endothelial cells. The mouse HDL (C-J) was also compared to a standard human HDL (B) that was added at the same concentrations as the mouse HDL. The resulting monocyte chemotactic activity was normalized to the standard control LDL added alone (A). The results are plotted as the HDL-inflammatory index, which is the result of dividing the monocyte chemotactic activity measured for each condition by the monocyte chemotactic activity obtained by the standard control LDL added alone, which was normalized to 1.0 as described previously (Navab et al. (2004) J Lipid Res, 45: 993-1007).
A second experiment was performed as described for the first experiment with 8 mice in each group except that the additions to the chow were different. Chow alone in the second experiment (G) was compared to chow supplemented with 100 micrograms of Niclosamide per gram of chow (H), or supplemented with 10 micrograms of L-4F (free base) per gram of mouse chow (I), or supplemented with 10 micrograms of L-4F (free base) together with 100 micrograms of Niclosamide per gram of chow (J). As in the first experiment the mice were only given one gram of chow per mouse so that they would consume all of the chow. In the morning this second group of mice were bled and their HDL tested in the human artery wall cell culture together with the HDL from the first experiment.
Ten mg of Niclosamide was placed in a glass-glass homogenizer with mortar and round bottom pestle (Kontes Dounce Tissue grinder, K885300-0015 available from Fisher, VWR) and 200 μL of ethanol was added. The Niclosamide ethanol mixture was homogenized using 2-3 strokes and distilled water was added and the mixture further homogenized using 5-10 strokes and the volume was adjusted to 10 mL with distilled water. Serial dilutions of this mixture were made using distilled water to give the micrograms of Niclosamide shown on the x-axis, which were contained in 100 μL. L-4F (free base) was diluted with water to give 10 μg per 100 μL of water. One hundred microliters of the Niclosamide solution was given by stomach tube to each mouse in each group of twelve-month-old non-fasting female apoE null mice (n=4 per group) and immediately followed by 100 μL containing 10 μg of L-4F (free base) in water. The mice were fasted and after 7 hours they were bled and their plasma was sucrose cryopreserved. The plasma was fractionated by FPLC and the HDL-containing fractions were tested for their ability to inhibit the induction of monocyte chemotactic activity by a standard control human LDL, which was added to cultures of human aortic endothelial cells. The standard control human LDL was also added by itself or with a standard control human HDL. The values obtained by the standard control human LDL alone were normalized to 1.0. […]

[4] = system: inflammatory response induced by the action of HPODE oxidizing PAPC in cocultures of human artery wall cells; settings: apoE null mice, drinking water 24 hours; D-4F 1 μg/ml, atorvastatin or pravastatin 0.05 mg/ml; cited from earlier work
[5] = Fate of peptides after an oral dose (degradation, association with HDL, clearance from the circulation)
[6] = cited from earlier work; for solubility in water: 20° C., ethanolamine salt in distilled water
aortic sinus lesion area = test: Lesion regression in old apoE null mice, six months in chow; format: in vivo; settings: FIGS. 32-34: niclosamide 2 mg and/or L-4F 200 μg/mouse/day in chow, pravastatin 50 μg/mouse/day, 26 weeks
Text: Ninety-five female apoE null mice age 9.5 months from the UCLA breeding colony were identified. Twenty-three were sacrificed at time Zero (Group I) to establish lesion area at the start of the experiment. The remainder of the mice were divided into three groups of 24 mice each and the following additions were made to the chow for each group: Group II: Niclosamide at 2,000 micrograms/mouse/day; Group III: L-4F at 200 micrograms/mouse/day; Group IV: L-4F at 200 micrograms/mouse/day plus Niclosamide at 2,000 micrograms/mouse/day. All groups received 50 micrograms/mouse/day of pravastatin in their drinking water. At the veterinarian's request because of fighting and/or ulcerative dermatitis mice were euthanized prior to the end of the experiment as follows: 6 mice from Group II; 5 mice from Group III; 4 mice from Group IV. After six months the remaining mice were sacrificed and aortic sinus lesion area was determined as described previously (Id.).
In still another experiments, nine and half months-old female apoE null mice were divided into four groups: Group I was sacrificed to establish base line lesion area (Time Zero). Group II received niclosamide at 2 mg/mouse/day in rodent chow. Group III received L-4F at 200 μg/mouse/day in rodent chow. […] After 26 weeks the mice were sacrificed and aortic sinus lesion area was determined.

[7] = Solubilization of niclosamide in water with or without L-4F; format: physicochemical; settings: even when added in ethanol and homogenized
[8] = system: monocyte chemotactic activity in cultures of human aortic endothelial cells; test: LDL-inflammatory index of LDL from treated apoE null mice; format: in vivo; settings: FIG. 25: co-administered with D-4F or L-4F, mice of FIG. 24
[9] = system: LDL-induced monocyte chemotactic activity in cultures of human aortic endothelial cells; settings: mice, oral, without niclosamide; human artery wall cells (Navab 2002); cited from earlier work
[10] = mouse, in vivo; remark: listed apart in the source
[11] = mouse, in vivo; cited from earlier work
[12] = FIG. 22: 10 μg peptide with or without niclosamide 10:1, pH 8.0, stomach tube, 7 hours
[13] = FIG. 8: female apoE null mice, overnight in chow, niclosamide 8 or 100 μg and/or L-4F 2 or 10 μg per gram of chow

- duration of (low) plasma levels [1]: no more than 5 minutes
- persistence of plasma level at a lower level [1]: up to four hours
- persistence of the Cmax plasma level [1]: persisted for more than an hour
- Cmax [2]: ~150 ng/mL
Molecule: CC(=O)N[C@@H](CC(=O)O)C(=O)N[C@@H](Cc1c[nH]c2ccccc12)C(=O)N[C@@H](Cc1ccccc1)C(=O)N[C@@H](CCCCN)C(=O)N[C@@H](C)C(=O)N[C@@H](Cc1ccccc1)C(=O)N[C@@H](Cc1ccc(O)cc1)C(=O)N[C@@H](CC(=O)O)C(=O)N[C@@H](CCCCN)C(=O)N[C@H](C(=O)N[C@@H](C)C(=O)N[C@@H](CCC(=O)O)C(=O)N[C@@H](CCCCN)C(=O)N[C@@H](Cc1ccccc1)C(=O)N[C@@H](CCCCN)C(=O)N[C@@H](CCC(=O)O)C(=O)N[C@@H](C)C(=O)N[C@@H](Cc1ccccc1)C(N)=O)C(C)C [^14C-L-4F] (Ac-DWFKAFYDKVAEKFKEAF-NH2; N-terminus and C-terminus assumed)
- HDL inflammatory index ([3]; FIG. 28: 10 μg 14C-L-4F with 100 μg niclosamide, 5 hours): biologically active when given with niclosamide

Molecule: D-4F: 4F (SEQ ID NO:5) where one or more residues are D form amino acids (DWFKAFYDKVAEKFKEAF; also: one or more residues D-form, places not given here)
- HDL function [4]: did not significantly improve HDL function
- HDL-inflammatory index [3, 12]: able to render apoE null mouse HDL anti-inflammatory to a degree comparable to normal human HDL
- association with pre-beta HDL and HDL ([5]; after an oral dose): rapidly associates with pre-beta HDL and HDL
- time after an oral dose at which essentially non-detectable in the circulation ([5]; oral dose): 6 h

- solubility in aqueous solutions [7]: relatively insoluble
Molecule: O=C(Nc1ccc([N+](=O)[O-])cc1Cl)c1cc(Cl)ccc1O [Niclosamide, 2′5-dichloro-4′-nitrosalicylanilide]
- solubility in water [6]: 5 to 8 µg/mL
- solubility in acetone [6]: soluble in acetone
- solubility in ether, ethanol and chloroform [6]: sparingly soluble
- stability in tablets ([6]; moist environments): undergoes a biodegradation
- lesions in old apoE null mice versus time zero (aortic sinus lesion area): neither niclosamide nor L-4F without niclosamide significantly reduced lesions
- HDL-inflammatory index [3, 13]: ineffective
- HDL-inflammatory index ([3]; FIG. 24: salicylanilide administered without the peptides): neither niclosamide nor the new salicylanilides were anti-inflammatory

Molecule: O=C(Nc1ccc([N+](=O)[O-])cc1Cl)c1cc(Cl)ccc1O [ethanolamine salt, 5-chloro-salicyl-(2-chloro-4-nitro) anilide 2-aminoethanol salt]
- solubility in water [6]: 180 to 280 µg/mL

Molecule: O=C(Nc1ccc([N+](=O)[O-])cc1Cl)c1ccc(O)c(Cl)c1 [BP-1012]
- LDL-inflammatory index, potency relative to niclosamide [8]: more potent
- HDL-inflammatory index, potency relative to niclosamide [3]: more potent than niclosamide

Molecule: O=C(Nc1ccc([N+](=O)[O-])cc1Cl)c1ccc(Cl)cc1O [BP-1001]
- LDL-inflammatory index, potency relative to niclosamide [8]: more potent
- HDL-inflammatory index, potency relative to niclosamide [3]: more potent than niclosamide

Molecule: CC(C)c1c(C(=O)Nc2ccccc2)c(-c2ccccc2)c(-c2ccc(F)cc2)n1CC[C@@H](O)C[C@@H](O)CC(=O)O [atorvastatin, reference compound]
- HDL function [4]: did not improve HDL function

- time after an oral dose at which essentially non-detectable in the circulation [10]: 6 h
Molecule: CC(=O)N[C@@H](CC(=O)O)C(=O)N[C@@H](Cc1c[nH]c2ccccc12)C(=O)N[C@@H](Cc1ccccc1)C(=O)N[C@@H](CCCCN)C(=O)N[C@@H](C)C(=O)N[C@@H](Cc1ccccc1)C(=O)N[C@@H](Cc1ccc(O)cc1)C(=O)N[C@@H](CC(=O)O)C(=O)N[C@@H](CCCCN)C(=O)N[C@H](C(=O)N[C@@H](C)C(=O)N[C@@H](CCC(=O)O)C(=O)N[C@@H](CCCCN)C(=O)N[C@@H](Cc1ccccc1)C(=O)N[C@@H](CCCCN)C(=O)N[C@@H](CCC(=O)O)C(=O)N[C@@H](C)C(=O)N[C@@H](Cc1ccccc1)C(N)=O)C(C)C [L-4F, Ac-D-W-F-K-A-F-Y-D-K-V-A-E-K-F-K-E-A-F-NH2] (Ac-DWFKAFYDKVAEKFKEAF-NH2)
- protective capacity of HDL to inhibit LDL-induced monocyte chemotactic activity [9]: did not significantly alter
- association with pre-beta HDL and HDL ([10]; po): rapidly associates with pre-beta HDL and HDL
- degradation after oral administration [11]: rapidly degraded
- lesions in old apoE null mice versus time zero (aortic sinus lesion area): neither niclosamide nor L-4F without niclosamide significantly reduced lesions
- HDL-inflammatory index [3, 13]: slightly but significantly improved
- HDL-inflammatory index [3, 12]: only able to achieve this degree of efficacy when co-administered with niclosamide
